{
  "source": "paper PMC7604414",
  "about": "“Favipiravir at high doses has potent antiviral activity in SARS-CoV-2−infected hamsters, whereas hydroxychloroquine lacks activity” (Proceedings of the National Academy of Sciences of the …, 2020)",
  "key": {"SARS-CoV-2 [1]": {"tested_on": "SARS-CoV-2", "conditions": "interquartile range of 5.4 (25 to 75%); read-out: reported in vitro EC50, median value; cited from earlier work"}, "[2]": {"experiment": "Calculation of HCQ blood, total lung and lung compartment concentrations", "set-up": "species or system Syrian hamsters", "description": "Starting from the measured total trough plasma concentrations measured at killing after 4 d or 5 d of HCQ treatment, total lung cytosolic concentrations of HCQ were calculated. First, the mean trough total plasma concentration of HCQ was used as a starting point to estimate the whole blood concentrations considering a blood to plasma ratio of 7.2, as reported by Tett et al. ([50]) and as mentioned in the summary of product characteristics of Plaquenil (Sanofi) (Eq. 1). whole blood concentration=plasma concentration×7.2.\nRelying on the experimental Kp (tissue versus whole blood partition coefficient) values in rats, the total lung tissue concentrations of HCQ were determined. Based on the partition values as reported by Wei et al. ([51]), a lung Kp value of 50 was applied to estimate the total lung concentration (Eq. 2). total lung tissue concentration=mean blood concentration×50.\nBased on these calculations, lung cytosolic HCQ concentrations correspond to 6% of the total lung tissue concentration (Eq. 3). total cytosolic lung tissue concentration=total lung tissue concentration×0.06."}, "SARS-CoV-2 [3]": {"tested_on": "SARS-CoV-2", "conditions": "hamster, in vivo"}, "SARS-CoV-2 [4]": {"tested_on": "SARS-CoV-2", "set-up": "method as in PMID 32444382", "conditions": "cited from earlier work"}, "[5]": {"set-up": "method as in ref 51 (Wei et al.)", "conditions": "rats, ref 51 (Wei et al.); cited from earlier work"}, "SARS-CoV-2 [6]": {"tested_on": "SARS-CoV-2", "set-up": "method as in PMID 32492293", "conditions": "postexposure prophylaxis, high doses of HCQ; cited from earlier work"}, "[7]": {"experiment": "HCQ plasma trough concentrations in hamsters (HPLC-MS)", "conditions": "female, Syrian, hamster, intraperitoneal, 50 mg/kg/d"}, "COVID-19 [8]": {"tested_on": "COVID-19", "set-up": "method as in ref 32 = [32]; 32 P. W. Horby , M. Landray , “Press release: No clinical benefit from use of hydroxychloroquine in hospitalised patients with COVID-19” (University of Oxford, 2020) .", "conditions": "patients admitted with COVID-19; cited from earlier work"}, "SARS-CoV-2 [9]": {"tested_on": "SARS-CoV-2", "experiment": "Reported in vitro EC50 values of HCQ against SARS-CoV-2", "assay_type": "cell-based", "conditions": "equated to 3 times the reported EC50"}, "[10]": {"conditions": "value applied in pH partition calculation; cited from earlier work"}, "[11]": {"set-up": "method as in ref 50 (Tett et al.) and summary of product characteristics of Plaquenil", "conditions": "ref 50 (Tett et al.) and summary of product characteristics of Plaquenil; cited from earlier work"}, "SARS-CoV-2 [12]": {"tested_on": "SARS-CoV-2", "set-up": "method as in ref 13 = [13]; 13 P. Maisonnasse ., Hydroxychloroquine in the treatment and prophylaxis of SARS-CoV-2 infection in non-human primates . Research Square:10.21203/RS.3.RS-27223/V1 (6 May 2020) .", "conditions": "therapeutic and prophylactic setting; cited from earlier work"}, "[13]": {"conditions": "human, in vivo; cited from earlier work"}, "COVID-19 [14]": {"tested_on": "COVID-19", "set-up": "method as in ref 39 = [39]; 39 C. Chen ., Favipiravir versus arbidol for COVID-19: A randomized clinical trial . medRxiv:10.1101/2020.03.17.20037432 (20 March 2020) .", "conditions": "cited from earlier work"}, "[15]": {"set-up": "method as in PMID 32405421", "conditions": "cited from earlier work"}, "SARS-CoV-2 [16]": {"tested_on": "SARS-CoV-2", "set-up": "method as in PMID 33741945", "conditions": "cited from earlier work"}, "[17]": {"experiment": "Favipiravir plasma trough concentrations in hamsters", "assay_type": "in vivo, Syrian hamsters", "conditions": "for concentration at 16 h after last treatment: female, hamster, plasma"}},
  "note": "Several values for one entry are separate records, joined by “and”; a condition that tells them apart may be missing. Equal entries are not always repeated. Where two headings read alike, the source gives them in different places.",
  "data": [
    {"compound": "CCN(CCO)CCCC(C)Nc1ccnc2cc(Cl)ccc12", "note": "(stereo not shown) [HCQ, hydroxychloroquine]", "values": [
      {"measurement": "EC50", "setting": "SARS-CoV-2 [1]", "result": 4.5, "unit": "µM"},
      {"measurement": "lung cytosolic HCQ concentration as share of total lung tissue concentration", "setting": "[2]; pH partition theory, relative lung compartment volumes", "result": 6, "unit": "%"},
      {"measurement": "endosomal/lysosomal HCQ concentration", "setting": "[2]; trough, HCQ sulfate 50 mg/kg/d", "result": 1.9, "unit": "mM"},
      {"measurement": "interstitial concentration in lung", "setting": "[2]; trough, HCQ sulfate 50 mg/kg/d", "result": 5.4, "unit": "µM"},
      {"measurement": "total lung concentration (Eq. 2)", "setting": "[2]; trough, HCQ sulfate 50 mg/kg/d, blood concentration × 50", "result": "90.2 ± 69.4", "unit": "µM"},
      {"measurement": "whole blood concentration (Eq. 1)", "setting": "[2]; trough, HCQ sulfate 50 mg/kg/d, plasma concentration × 7.2", "result": "1.8 ± 1.4", "unit": "µM"},
      {"measurement": "total cytosolic lung tissue concentration (Eq. 3)", "setting": "[2]; trough, HCQ sulfate 50 mg/kg/d, total lung × 0.06", "result": "5.4 ± 4.2", "unit": "µM"},
      {"measurement": "radiological improvement (micro-CT) vs nontreated animals", "setting": "SARS-CoV-2 [3]", "result": "no radiological improvement"},
      {"measurement": "reduction in viral RNA load in the ileum or stool", "setting": "SARS-CoV-2 [3]", "result": "no reduction"},
      {"measurement": "reduction of infectious virus titers in the lungs", "setting": "SARS-CoV-2 [3]", "result": "no significant reduction"},
      {"measurement": "reduction of viral RNA in lung vs untreated infected hamsters", "setting": "SARS-CoV-2 [3]", "result": "0.3 log10 viral RNA copies per mg of lung"},
      {"measurement": "weight loss", "setting": "SARS-CoV-2 [3]", "result": "< 5", "unit": "%"},
      {"measurement": "virus titers in SARS-CoV-2-infected ferrets", "setting": "SARS-CoV-2 [4]", "result": "not able to significantly reduce"},
      {"measurement": "lung Kp (tissue versus whole blood partition coefficient)", "setting": "[5]", "result": 50},
      {"measurement": "prevention of SARS-CoV-2 infection or COVID-19-like disease", "setting": "SARS-CoV-2 [6]", "result": "did not prevent"},
      {"measurement": "concentration at 4 d post infection (at killing)", "setting": "[7]", "result": "84 ng/mL and 300 nM"},
      {"measurement": "mortality or duration of hospital stay", "setting": "COVID-19 [8]", "result": "did not result in a beneficial effect"},
      {"measurement": "estimated EC90 (3 times the EC50), target lung concentration", "setting": "SARS-CoV-2 [9]", "result": "13.5 ± 16.3", "unit": "µM"},
      {"measurement": "pKa", "setting": "[10]", "result": 9.67},
      {"measurement": "blood to plasma ratio", "setting": "[11]", "result": 7.2},
      {"measurement": "viral loads in SARS-CoV-2-infected cynomolgus macaques", "setting": "SARS-CoV-2 [12]", "result": "did not result in a significant decrease"}
    ]},
    {"compound": "NC(=O)c1nc(F)c[nH]c1=O", "note": "[favipiravir]", "values": [
      {"measurement": "decrease of viral RNA in lung vs untreated infected hamsters", "setting": "SARS-CoV-2 [3]", "result": "1.0 log10 RNA copies per mg of lung tissue"},
      {"measurement": "effect on viral RNA in ileum and stool", "setting": "SARS-CoV-2 [3]", "result": "a smaller effect"},
      {"measurement": "hamsters with infectious virus in the lungs", "setting": "SARS-CoV-2 [3]", "result": "two"},
      {"measurement": "histological lung pathology (H&E cumulative severity score)", "setting": "SARS-CoV-2 [3]", "result": "significant improvements"},
      {"measurement": "reduction in viral RNA levels in the lungs", "setting": "SARS-CoV-2 [3]", "result": "smaller inhibitory effect"},
      {"measurement": "reduction of relative infectivity of lung virus particles", "setting": "SARS-CoV-2 [3]", "result": "136 fold and 172 fold"},
      {"measurement": "relative lung viral particle infectivity (infectious particles / viral RNA genomes)", "setting": "SARS-CoV-2 [3]", "result": "did not decrease"},
      {"measurement": "weight loss", "setting": "SARS-CoV-2 [3]", "result": "over 5%"},
      {"measurement": "weight loss, on average", "setting": "SARS-CoV-2 [3]", "result": 2, "unit": "%"},
      {"measurement": "toxicity signs in clinical presentation", "setting": "SARS-CoV-2 [3]; ip", "result": "No toxicity signs"},
      {"measurement": "median plasma trough concentration", "setting": "[13]", "result": 25.9, "unit": "µg/mL"},
      {"measurement": "clinical recovery rate vs arbidol control group", "setting": "COVID-19 [14]; COVID-19 patients with hypertension and/or diabetes and critically ill patients", "result": "not significantly different"},
      {"measurement": "clinical recovery rate at day 7 vs arbidol control group", "setting": "COVID-19 [14]; COVID-19 patients with mild symptoms", "result": "higher"},
      {"measurement": "teratogenicity", "setting": "[15]", "result": "teratogenic"},
      {"measurement": "viral replication in the lung", "setting": "SARS-CoV-2 [16]; favipiravir 1,400 mg/kg/d TID started 1 d before intranasal infection", "result": "undetectable"},
      {"measurement": "toxicity (weight loss from first day of treatment)", "setting": "SARS-CoV-2 [16]; favipiravir 1,400 mg/kg/d TID", "result": "high toxicity"},
      {"measurement": "virus infection in hamsters", "setting": "SARS-CoV-2 [16]; favipiravir ~1,400 mg/kg/d TID", "result": "significant reductions"},
      {"measurement": "concentration at 16 h after last treatment", "setting": "[17]; Syrian, intraperitoneal, 1000 mg/kg/d, favipiravir 1,000 mg/kg/d i.p. BID for 4 d, read-out: plasma trough level", "result": "~4400", "unit": "ng/mL"},
      {"measurement": "concentration at 16 h after last treatment", "setting": "[17]; intraperitoneal, 1000 mg/kg/d, favipiravir 1,000 mg/kg/d i.p. BID for 4 d, read-out: plasma trough level", "result": "4400 ± 1600", "unit": "ng/mL"},
      {"measurement": "concentration at 16 h after last treatment", "setting": "[17]; intraperitoneal, favipiravir 600 mg/kg/d i.p. BID for 4 d, read-out: plasma trough level", "result": "1200 ± 300", "unit": "ng/mL"},
      {"measurement": "concentration at 16 h after last treatment", "setting": "[17]; favipiravir 300 mg/kg/d oral BID for 4 d, read-out: average plasma trough concentration", "result": "200 ± 30", "unit": "ng/mL"},
      {"measurement": "favipiravir trough concentrations in sentinel hamsters vs infection model", "setting": "[17]; preexposure prophylaxis with 300 and 1,000 mg/kg/d, dosing for 5 d", "result": "similar"}
    ]}
  ]
}
